In patent US10005773B2, “1-(4-pyrimidinyl)-1H-pyrrolo[3,2-c]pyridine derivatives as NIK inhibitors” (Janssen Pharmaceutica NV, priority 2013, dated 2018):

How the values were obtained:
[1] = biological target: T1, Recombinant Human NF-kappaB-Inducing Kinase (NIK/MAP3K14) (Homo sapiens, UniProt Q99558); assay: Biological Assay A2: inhibition of auto-phosphorylation of recombinant human NIK/MAP3K14 (AlphaScreen); format: biochemical; details: 25 microM ATP, 0.2 nM NIK/MAP3K14, 1 h at 25° C., averaged over all batches, read-out: Alpha-Screen IC50
T1 sequence (Q99558 whole entry): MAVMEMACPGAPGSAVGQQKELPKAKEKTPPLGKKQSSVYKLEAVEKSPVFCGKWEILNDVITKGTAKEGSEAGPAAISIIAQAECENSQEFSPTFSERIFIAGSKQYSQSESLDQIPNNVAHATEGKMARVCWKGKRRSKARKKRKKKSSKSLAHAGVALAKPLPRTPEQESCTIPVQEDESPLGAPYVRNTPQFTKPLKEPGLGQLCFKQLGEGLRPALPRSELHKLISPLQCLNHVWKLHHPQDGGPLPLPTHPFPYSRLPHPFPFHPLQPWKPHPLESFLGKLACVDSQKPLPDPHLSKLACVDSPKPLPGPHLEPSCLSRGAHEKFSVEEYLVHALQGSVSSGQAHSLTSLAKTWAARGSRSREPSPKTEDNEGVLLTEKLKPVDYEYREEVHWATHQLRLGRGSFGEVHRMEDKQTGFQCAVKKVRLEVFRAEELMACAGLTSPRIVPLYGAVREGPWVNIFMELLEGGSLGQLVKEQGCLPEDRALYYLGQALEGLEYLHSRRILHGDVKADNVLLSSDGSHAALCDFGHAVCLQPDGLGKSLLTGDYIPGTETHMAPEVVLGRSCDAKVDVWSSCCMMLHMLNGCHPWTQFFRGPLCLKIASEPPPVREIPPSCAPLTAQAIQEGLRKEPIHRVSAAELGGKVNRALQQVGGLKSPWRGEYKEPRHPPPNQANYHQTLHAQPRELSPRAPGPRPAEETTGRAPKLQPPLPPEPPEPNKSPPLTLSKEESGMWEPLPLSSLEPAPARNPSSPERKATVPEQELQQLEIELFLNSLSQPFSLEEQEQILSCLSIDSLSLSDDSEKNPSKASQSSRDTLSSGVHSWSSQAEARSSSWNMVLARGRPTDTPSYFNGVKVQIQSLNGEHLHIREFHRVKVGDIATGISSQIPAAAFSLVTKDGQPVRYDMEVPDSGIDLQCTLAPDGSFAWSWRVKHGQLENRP
Description: Inhibition of Auto-Phosphorylation of Recombinant Human NF-kappaB-Inducing Kinase (NIKIMAP3K14) Activity (AlphaScreen®)
NIK/MAP3K14 auto-phosphorylation activity was measured using the AlphaScreen® (ascreen) format (Perkin Elmer). All compounds tested were dissolved in dimethyl sulfoxide (DMSO) and further dilutions were made in assay buffer. Final DMSO concentration was 1% (v/v) in assays. Assay buffer was 50 mM Tris pH 7.5 containing 1 mM EGTA (ethylene glycol tetraacetic acid), 1 mM DTT (dithiothreitol), 0.1 mM Na3VO4, 5 mM MgCl2, 0.01% Tween® 20. Assays were carried out in 384 well Alphaplates (Perkin Elmer). Incubations consisted of compound, 25 microM Adenosine-5′-triphosphate (ATP), and 0.2 nM NIK/MAP3K14. Incubations were initiated by addition of GST-tagged NIK/MAP3K14 enzyme, carried out for 1 h at 25° C. and terminated by addition of stop buffer containing anti-phospho-IKK Ser176/180 antibody. Protein A Acceptor and Glutathione-Donor beads were added before reading using an EnVision® Multilabel Plate Reader (Perkin Elmer). Signal obtained in the wells containing blank samples was subtracted from all other wells and IC50's were determined by fitting a sigmoidal curve to % inhibition of control versus Log10 compound concentration.

[2] = test system: JJN-3 cells; assay: Biological Assay C: antiproliferative activity on JJN-3 cells (CellTiter-Glo); format: cell-based; details: Homo sapiens, 72 hr treatment
Description: (§1) Determination of Antiproliferative Activity on LP-1, L-363 and JJN-3 Cells
(§2) All compounds tested were dissolved in DMSO and further dilutions were made in culture medium. Final DMSO concentration was 0.3% (v/v) in cell proliferation assays. Viability was assessed using CellTiter-Glo cell viability assay kit (Promega). The human LP-1, L-363 and JJN-3 cells (DSMZ) were cultured in RPMI 1640 medium supplemented with 2 mM L-glutamine, and 10% fetal calf serum (PAA). Cells were routinely kept as suspension cells at 37° C. in a humidified 5% CO2 atmosphere. Cells were passaged at a seeding density of 0.2×10^6/ml twice a week. Cells were seeded in black tissue culture treated 96-well plates (Perkin Elmer). Densities used for plating ranged from 2,000 to 6,000 cells per well in a total volume of 75 μl medium. After twenty four hours, drugs and/or solvents were added (25 μl) to a final volume of 100 μl. Following 72 hr of treatment plates were removed from the incubator and allowed to equilibrate to room temperature for approx 10 min. 100 μl CellTiter-Glo reagent was added to each well that was then covered (Perkin Elmer Topseal) and shaken on plate shaker for 10 min. Luminescence was measured on a HTS Topcount (Perkin Elmer). Within an experiment, the results for each treatment were the mean of 2 replicate wells. For initial screening purposes, compounds were tested using a 9 point dilution curve (serial 1:3 dilutions). For each experiment, controls (containing no drug) and a blank incubation (containing cells read at the time of compound addition) were run in parallel. The blank value was subtracted from all control and sample values. For each sample, the mean value for cell growth (in relative light units) was expressed as a percentage of the mean value for cell growth of the control.

[3] = test system: L-363 cells; assay: Biological Assay C: antiproliferative activity on L-363 cells (CellTiter-Glo); format: cell-based; details: Homo sapiens, 72 hr treatment
Description: as §1, §2

[4] = test system: LP-1 cells; assay: Biological Assay C: antiproliferative activity on LP-1 cells (CellTiter-Glo); format: cell-based; details: Homo sapiens, 72 hr treatment
Description: as §1, §2

[5] = biological target: T1, Recombinant Human NF-kappaB-Inducing Kinase (NIK/MAP3K14); assay: Biological Assay A: inhibition of recombinant human NIK/MAP3K14 activity (MSD, MBP substrate); details: 25 μM ATP, 10 nM NIK/MAP3K14, 1 h at 25° C.; averaged over all batches; read-out: Biochemical (MSD MBP) IC50
Description: Inhibition of Recombinant Human NF-kappaB-Inducing Kinase (NIKIMAP3K14) Activity
Assay buffer was 50 mM Tris pH 7.5 containing 1 mM ethylene glycol tetraacetic acid (EGTA), 1 mM dithiothreitol (DTT), 0.1 mM Na3VO4, 5 mM MgCl2, 0.01% Tween® 20. Assays were carried out in 384 well Mesoscale high binding plates which had been coated with myelin basic protein (MBP) and blocked with bovine serum albumin to prevent non-specific protein binding. All compounds tested were dissolved in dimethyl sulfoxide (DMSO) and further dilutions were made in assay buffer. Final DMSO concentration was 1% (v/v) in assays. Incubations consisted of compound (1% DMSO in control and blank wells), 25 μM Adenosine-5′-triphosphate (ATP), and 10 nM NIK/MAP3K14 substituting enzyme with buffer in the blank wells. Incubations were carried out for 1 h at 25° C. and were followed by washing and sequential incubation with rabbit anti-phospho-MBP and anti-rabbit Ig Sulfotag antibody before reading bound Sulfotag on a Mesoscale Discovery. Signal obtained in the wells containing blank samples was subtracted from all other wells and IC50's were determined by fitting a sigmoidal curve to % inhibition of control versus Log10 compound concentration.

[6] = test system: P-IKKα levels in L363 cells; assay: Biological Assay B: effect of compounds on P-IKKα levels in L363 cells; format: cell-based; details: Homo sapiens, L-363, BAFF stimulated, 2 hr treatment, averaged over all batches, read-out: IKKα Cellular IC50
Description: Effect of Compounds on P-IKKα Levels in L363 Cells
All compounds tested were dissolved in DMSO and further dilutions were made in culture medium. Final DMSO concentration was 1% (v/v) in cell assays. The human L363 cells (ATCC) were cultured in RPMI 1640 medium supplemented with GlutaMax and 10% fetal calf serum (PAA). Cells were routinely maintained at densities of 0.2×10^6 cells per ml-1×10^6 cells per ml at 37° C. in a humidified 5% CO2 atmosphere. Cells were passaged twice a week splitting back to obtain the low density. Cells were seeded in 96 well plates (Nunc 167008) at 2×10^6 per ml media in a volume of 75 μl per well plus 25 μl 1 μg/ml recombinant human B-cell activating factor (BAFF/BLyS/TNFSF13B). Seeded cells were incubated at 37° C. in a humidified 5% CO2 atmosphere for 24 hr. Drugs and/or solvents were added (20 μl) to a final volume of 120 μl. Following 2 hr treatment plates were removed from the incubator and cell lysis was achieved by the addition of 30 μl 5× lysis buffer followed by shaking on a plate shaker at 4° C. for 10 min. At the end of this incubation lysed cells were centrifuged at 800×g for 20 min at 4° C. and the lysate was assessed for P-IKKα levels by sandwich immuno-assay carried out in anti-rabbit antibody coated Mesoscale plates. Within an experiment, the results for each treatment were the mean of 2 replicate wells. For initial screening purposes, compounds were tested using an 8 point dilution curve (serial 1:3 dilutions). For each experiment, controls (containing MG132 and BAFF but no test drug) and a blank incubation (containing MG132 and BAFF and 10 μM ADS125117, a test concentration known to give full inhibition) were run in parallel. The blank incubation value was subtracted from all control and sample values. To determine the IC50 a sigmoidal curve was fitted to the plot of % inhibition of control P-IKKα levels versus Log10 compound concentration.

IC50 [1] [nM] | IC50 [5] [nM] | IC50 [6] [nM] | Compound | EC50 [2] [nM] | EC50 [3] [nM] | EC50 [4] [nM]
16 | 3.8 | 163 | CC(C)(O)C#Cc1cc2c(ccn2-c2nc(N)ncc2Cl)cn1 [Compound 7] | 1050 | 977 | 1900
24 | 12 | 104 | Nc1ncc(Cl)c(-n2ccc3cnc(C#CC4(O)CC4)cc32)n1 [Compound 8] | 1590 | 1560 | 2330
11 | 2.8 | 101 | Nc1ncc(Cl)c(-n2ccc3cnc(C#CC4(O)CCCC4)cc32)n1 [Compound 9] | 1830 | 15400 | 37200
18 | 5.1 | 89 | CC(O)(C#Cc1cc2c(ccn2-c2nc(N)ncc2Cl)cn1)c1nccs1 (stereo not drawn) [Compound 10] | 1220 | 12800 | 28000
232 | 115 | 330 | Cc1cnc(N)nc1-n1ccc2cnc(C#CC(C)(C)O)cc21 [Compound 11] | 2720 | 3770 | 5840
13 | 77 | 25 | CC(C)(O)C#Cc1cc2c(ccn2-c2nc(N)ncc2F)cn1 [Compound 12] | 132 | 133 | 282
7.7 | 18 | 44 | Nc1ncc(F)c(-n2ccc3cnc(C#CC4(O)CCCC4)cc32)n1 [Compound 13] | 872 | 4260 | 3270
185 | 28 | 1240 | CC(C)(O)C#Cc1cc2c(cn1)c(C(N)=O)cn2-c1ccnc(N)n1 [Compound 14] | 10700 | 12700 | > 30000
59 | 37 | 1310 | CNC(=O)c1cn(-c2ccnc(N)n2)c2cc(C#CC(C)(C)O)ncc12 [Compound 15] | 3330 | 7180 | > 30000
6.7 | 20 | 56 | CC(CO)c1cn(-c2ccnc(N)n2)c2cc(C#CC(C)(C)O)ncc12 (stereo not drawn) [Compound 16] | 157 | 354 | 6120
259 | 82 | 199 | CCCCOCc1cn(-c2ccnc(N)n2)c2cc(C#CC(C)(C)O)ncc12 [Compound 17] | 333 | 464 | 460
20 | 22 | 56 | COCc1cn(-c2ccnc(N)n2)c2cc(C#CC(C)(C)O)ncc12 [Compound 18] | 313 | 247 | 1330
54 | 98 | 781 | CC(C)(O)C#Cc1cc2c(cn1)c(C#N)cn2-c1ccnc(N)n1 [Compound 19] | 1450 | 1840 | 4660
26 | 13 | 55 | CC(C)(O)C#Cc1cc2c(cn1)c(CC#N)cn2-c1ccnc(N)n1 [Compound 20] | 190 | 319 | 1280
15 | 11 | 9.5 | CCc1cn(-c2ccnc(N)n2)c2cc(C#CC(C)(C)O)ncc12 [Compound 21] | 41 | 44 | 70
16 | 6.5 | 16 | CC(C)c1cn(-c2ccnc(N)n2)c2cc(C#CC(C)(C)O)ncc12 [Compound 22] | 49 | 47 | 131
35 | 33 | 87 | CN1CCC(c2cn(-c3ccnc(N)n3)c3cc(C#CC(C)(C)O)ncc23)CC1 [Compound 23] | 116 | 92 | 1920
37 | 40 | 183 | CN1CCC(c2cn(-c3ccnc(N)n3)c3cc(C#CC4(O)CCCC4)ncc23)CC1 [Compound 24] | 779 | 512 | 4240
95 | 103 | 75 | CN1CCC(c2cn(-c3nc(N)ncc3F)c3cc(C#CC(C)(C)O)ncc23)CC1 [Compound 25] | 130 | 105 | 1040
11 | 3.8 | 41 | CC(C)(O)C#Cc1cc2c(cn1)c(CCO)cn2-c1ccnc(N)n1 [Compound 26] | 182 | 823 | 6940
33 | 31 | 48 | COCCc1cn(-c2ccnc(N)n2)c2cc(C#CC(C)(C)O)ncc12 [Compound 27] | 145 | 194 | 448
5.5 | 3.9 | 28 | CC(C)(O)C#Cc1cc2c(cn1)c(CCCO)cn2-c1ccnc(N)n1 [Compound 28] | 162 | 215 | 4440
24 | 19 | 32 | CC(C)(O)C#Cc1cc2c(cn1)c(CCCO)cn2-c1nc(N)ncc1F [Compound 29] | 298 | 277 | 3480
